Measurements: ChEMBL document CHEMBL5537147, “Development of membrane-targeting TPP+-chloramphenicol conjugates to combat methicillin-resistant staphylococcus aureus (MRSA) infections” (Eur J Med Chem, 2024)
The source made the active and inactive calls. The rule behind the calls is not given here.

Columns and labels:
Staphylococcus aureus [1] = test: Antibacterial activity against methicillin-resistant Staphylococcus aureus 330041 assessed as inhibition of bacterial growth incubated for 16 to 18 hrs by CLSI based two-fold serial dilution method; assay type: functional; conditions: time 16-18 hrs
Staphylococcus aureus [2] = test: Antibacterial activity against methicillin-resistant Staphylococcus aureus 3390 assessed as inhibition of bacterial growth incubated for 16 to 18 hrs by CLSI based two-fold serial dilution method; assay type: functional; conditions: time 16-18 hrs
Staphylococcus aureus [3] = test: Antibacterial activity against methicillin-resistant Staphylococcus aureus 3392 assessed as inhibition of bacterial growth incubated for 16 to 18 hrs by CLSI based two-fold serial dilution method; assay type: functional; conditions: time 16-18 hrs
Staphylococcus aureus [4] = test: Antibacterial activity against methicillin-resistant Staphylococcus aureus USA300 assessed as inhibition of bacterial growth incubated for 16 to 18 hrs by CLSI based two-fold serial dilution method; assay type: functional; conditions: time 16-18 hrs
Acinetobacter baumannii [5] = test: Antibacterial activity against Acinetobacter baumannii 1309 assessed as inhibition of bacterial growth incubated for 16 to 18 hrs by CLSI based two-fold serial dilution method; assay type: functional; conditions: time 16-18 hrs
Acinetobacter baumannii [6] = test: Antibacterial activity against Acinetobacter baumannii 1310 assessed as inhibition of bacterial growth incubated for 16 to 18 hrs by CLSI based two-fold serial dilution method; assay type: functional; conditions: time 16-18 hrs
Pseudomonas aeruginosa [7] = test: Antibacterial activity against Pseudomonas aeruginosa 408 assessed as inhibition of bacterial growth incubated for 16 to 18 hrs by CLSI based two-fold serial dilution method; assay type: functional; conditions: time 16-18 hrs
Pseudomonas aeruginosa [8] = test: Antibacterial activity against Pseudomonas aeruginosa 535 assessed as inhibition of bacterial growth incubated for 16 to 18 hrs by CLSI based two-fold serial dilution method; assay type: functional; conditions: time 16-18 hrs
[9] = Cytotoxicity against human L02 cells assessed as inhibition of cell growth incubated for 24 hrs by MTT assay; assay type: toxicity, cell-based
Staphylococcus aureus [10] = test: Antibacterial activity against methicillin-resistant Staphylococcus aureus USA300 infected in ICR mouse assessed as reduction in bacterial load in infected thigh at 10 mg/kg, sc pre-infected with bacteria for 2 hrs followed by compound administration as dual dose and measured after 3 days; assay type: functional, organism-based; conditions: time 3.0 day
[11] = Toxicity in ICR mouse infected with methicillin-resistant Staphylococcus aureus USA300 assessed as reduction in body weight at 20 mg/kg, sc administered as dual dose and measured after 3 days; assay type: organism-based; conditions: in vivo, 72 h, time 3 day
HEK-293T = test: Cytotoxicity against HEK293T cells assessed as effect on cell viability at 35 ug/ml incubated for 24 hrs by MTT assay; assay type: toxicity, cell-based; conditions: human, dose 35 µg/ml
Erythrocyte [12] = test: Hemolytic activity in sheep RBC at 30 ug/ml incubated for 1 hr by absorbance based analysis; assay type: toxicity, cell-based, Ovis aries; conditions: dose 30 µg/ml
Staphylococcus aureus [13] = test: Bactericidal against methicillin-resistant Staphylococcus aureus USA300 assessed as elimination of bacterial colonies at 16 ug/ml measured within 5 hrs by time kill assay relative to control; assay type: functional; conditions: dose 16 µg/ml
Staphylococcus aureus [14] = test: Bactericidal against methicillin-resistant Staphylococcus aureus USA300 assessed as reduction in bacterial colonies at 32 ug/ml measured upto 7 hrs by time kill assay; assay type: functional, organism-based; conditions: dose 32.0 µg/ml
Staphylococcus aureus [15] = test: Bactericidal against methicillin-resistant Staphylococcus aureus USA300 assessed as total eradication of bacterial colonies at 1 to 2 times MIC measured upto 7 hrs by time kill assay; assay type: functional, organism-based
Staphylococcus aureus [16] = test: Resistance development in methicillin-resistant Staphylococcus aureus USA300 assessed as increase in MIC measured after 15 passages; assay type: functional, organism-based
Cell membrane [17] = test: Induction of cell membrane damage in methicillin-resistant Staphylococcus aureus USA300 assessed as appearance of wrinkles in cell surface at 16 ug/ml measured after 0.5 hrs by SEM analysis; assay type: cell membranes; conditions: dose 16.0 µg/ml
Cell membrane [18] = test: Induction of cell membrane damage in methicillin-resistant Staphylococcus aureus USA300 assessed as disruption of cell membrane at 16 ug/ml measured after 0.5 hrs by SEM analysis; assay type: cell membranes; conditions: dose 16.0 µg/ml
Cell membrane [19] = test: Disruption of cell membrane integrity in methicillin-resistant Staphylococcus aureus USA300 assessed as increase in fluorescence intensity measured after 0 to 30 mins by SYTOX Green staining based analysis; assay type: cell membranes; conditions: dose 2-16 µg/ml, time 0-30 min
[20] = Toxicity in ICR mouse infected with methicillin-resistant Staphylococcus aureus USA300 assessed as reduction in body weight at 10 mg/kg, sc administered as dual dose and measured after 3 days; assay type: organism-based; conditions: in vivo, 72 h, time 3 day
Erythrocyte [21] = test: Hemolytic activity in sheep RBC at 20 ug/ml incubated for 1 hr by absorbance based analysis; assay type: toxicity, cell-based, Ovis aries; conditions: dose 20 µg/ml
Staphylococcus aureus [22] = test: Bactericidal against methicillin-resistant Staphylococcus aureus USA300 assessed as elimination of bacterial colonies at 16 ug/ml measured within 3 hrs by time kill assay relative to control; assay type: functional; conditions: dose 16 µg/ml
Cell membrane [23] = test: Induction of cell membrane damage in methicillin-resistant Staphylococcus aureus USA300 assessed as appearance of wrinkles in cell surface at 8 ug/ml measured after 0.5 hrs by SEM analysis; assay type: cell membranes; conditions: dose 8.0 µg/ml
Cell membrane [24] = test: Induction of cell membrane damage in methicillin-resistant Staphylococcus aureus USA300 assessed as disruption of cell membrane at 8 ug/ml measured after 0.5 hrs by SEM analysis; assay type: cell membranes; conditions: dose 8.0 µg/ml
Cell membrane [25] = test: Disruption of cell membrane integrity in methicillin-resistant Staphylococcus aureus USA300 assessed as increase in fluorescence intensity measured after 0 to 100 mins by SYTOX Green staining based analysis; assay type: cell membranes; conditions: dose 2-32 µg/ml, time 0-100 min
Staphylococcus aureus [26] = test: Antibacterial activity against methicillin-resistant Staphylococcus aureus USA300 infected in ICR mouse assessed as reduction in bacterial load in infected thigh at 20 mg/kg, sc pre-infected with bacteria for 2 hrs followed by compound administration as dual dose and measured after 3 days; assay type: functional, organism-based; conditions: time 3.0 day

| Compound | MIC (Staphylococcus aureus [1]) [µg/mL] | MIC (Staphylococcus aureus [2]) [µg/mL] | MIC (Staphylococcus aureus [3]) [µg/mL] | MIC (Staphylococcus aureus [4]) [µg/mL] | MIC (Acinetobacter baumannii [5]) [µg/mL] | MIC (Acinetobacter baumannii [6]) [µg/mL] | MIC (Pseudomonas aeruginosa [7]) [µg/mL] | MIC (Pseudomonas aeruginosa [8]) [µg/mL] | IC50 at 24 h [9] [µg/mL] | further results |
| --- | --- | --- | --- | --- | --- | --- | --- | --- | --- | --- |
| O=C(N[C@H](CO)[C@H](O)c1ccc([N+](=O)[O-])cc1)C(Cl)Cl [CHLORAMPHENICOL] | > 64 | > 64 | > 64 | > 64 | > 64 | > 64 | > 64 | > 64 | > 64 | Activity (Staphylococcus aureus [10]): inactive; Activity [11]: Non-Toxic |
| CN[C@H](CC(C)C)C(=O)N[C@H]1C(=O)N[C@@H](CC(N)=O)C(=O)N[C@H]2C(=O)N[C@H]3C(=O)N[C@H](C(=O)N[C@H](C(=O)O)c4cc(O)cc(O)c4-c4cc3ccc4O)[C@H](O)c3ccc(c(Cl)c3)Oc3cc2cc(c3O[C@@H]2O[C@H](CO)[C@@H](O)[C@H](O)[C@H]2O[C@H]2C[C@](C)(N)[C@H](O)[C@H](C)O2)Oc2ccc(cc2Cl)[C@H]1O [VANCOMYCIN] |  |  |  |  | > 64 | > 64 | > 64 | > 64 | > 64 | Activity [11]: Non-Toxic |
| Br.O=C(CCCCCCCCC[P+](c1ccc(F)cc1)(c1ccc(F)cc1)c1ccc(F)cc1)OC[C@H](NC(=O)C(Cl)Cl)[C@H](O)c1ccc([N+](=O)[O-])cc1 | 1 | 2 | 2 | 2 | > 64 | > 64 | > 64 | > 64 | > 64 | Activity (HEK-293T): Non-Toxic; Activity (Erythrocyte [12]): Non-Toxic; Activity (Staphylococcus aureus [13]): 100%; Activity (Staphylococcus aureus [14]): Active; Activity (Staphylococcus aureus [15]): inactive; Activity (Staphylococcus aureus [16]): inactive; Activity (Cell membrane [17]): Active; Activity (Cell membrane [18]): Active; Activity (Cell membrane [19]): Dose-Dependent Effect; Activity (Staphylococcus aureus [10]): inactive; Activity [20]: Non-Toxic |
| Br.O=C(CCCCCCCCC[P+](c1ccccc1)(c1ccccc1)c1ccccc1)OC[C@H](NC(=O)C(Cl)Cl)[C@H](O)c1ccc([N+](=O)[O-])cc1 | 1 | 1 | 1 | 1 | > 64 | 32 | > 64 | > 64 | > 32 | Activity (HEK-293T): Non-Toxic; Activity (Erythrocyte [21]): Non-Toxic; Activity (Staphylococcus aureus [22]): 100%; Activity (Staphylococcus aureus [14]): Active; Activity (Staphylococcus aureus [15]): inactive; Activity (Staphylococcus aureus [16]): inactive; Activity (Cell membrane [23]): Active; Activity (Cell membrane [24]): Active; Activity (Cell membrane [25]): Dose-Dependent Effect; Activity (Staphylococcus aureus [26]): Active; Activity [11]: Non-Toxic |
| Br.O=C(CCCCCCCCC[P+](c1ccc(C(F)(F)F)cc1)(c1ccc(C(F)(F)F)cc1)c1ccc(C(F)(F)F)cc1)OC[C@H](NC(=O)C(Cl)Cl)[C@H](O)c1ccc([N+](=O)[O-])cc1 | 1 | 1 | 1 | 1 | > 64 | > 64 | > 64 | > 64 | > 32 |  |
| Br.O=C(CCCCCn1cc(C[P+](c2ccc(F)cc2)(c2ccc(F)cc2)c2ccc(F)cc2)nn1)OC[C@H](NC(=O)C(Cl)Cl)[C@H](O)c1ccc([N+](=O)[O-])cc1 | 16 | 16 | 16 | 16 | > 64 | > 64 | > 64 | > 64 | > 64 |  |
| Br.O=C(CCCCCCCCCCCCCCCCC[P+](c1ccccc1)(c1ccccc1)c1ccccc1)OC[C@H](NC(=O)C(Cl)Cl)[C@H](O)c1ccc([N+](=O)[O-])cc1 | 2 | 2 | 2 | 2 | > 64 | > 64 | > 64 | > 64 | 7.9 |  |
| Br.O=C(CCCCC[P+](c1ccccc1)(c1ccccc1)c1ccccc1)OC[C@H](NC(=O)C(Cl)Cl)[C@H](O)c1ccc([N+](=O)[O-])cc1 | 16 | 16 | 8 | 8 | > 64 | > 64 | > 64 | > 64 | > 64 |  |
| O=C(O)CCCCCCCCCCCCCCCCC[P+](c1ccccc1)(c1ccccc1)c1ccccc1.[Br-] | > 64 | > 64 | > 64 | > 64 | > 64 | > 64 | > 64 | > 64 | > 64 |  |
| O=C(O)CCCCCn1cc(C[P+](c2ccc(F)cc2)(c2ccc(F)cc2)c2ccc(F)cc2)nn1.[Br-] | > 64 | > 64 | > 64 | > 64 | > 64 | > 64 | > 64 | > 64 | > 64 |  |
| Br.CN(C)c1ccc([P+](CCCCCCCCCC(=O)OC[C@H](NC(=O)C(Cl)Cl)[C@H](O)c2ccc([N+](=O)[O-])cc2)(c2ccc(N(C)C)cc2)c2ccc(N(C)C)cc2)cc1 | 1 | 1 | 1 | 1 | 16 | 32 | 4 | 16 | 12.4 |  |
